One data set deals with SW620. Put plainly: Tumor cell proliferation inhibition (CellTiter-Glo), SW620. As to conditions: Homo sapiens, SW-620; 72 hours, 10% fetal bovine serum; read-out: SW620 IC50 class. The data set is classed as cell-based. As for the experimental part: (§1) The content of adenosine triphosphate (ATP) was determined using the CellTiter-Glo Luminescent Cell Viability Assay Kit (Promega, Madison, Wis.) to evaluate cell viability. Tumor cell lines (SW620, ZR-75-1, MDA-MB-231) were purchased from the Cell Resource Center of IBS, Fudan University, Shanghai and the American Type Culture Collection (ATCC). The cell density was determined using Scepter automated cell counter (Millipore # PHCC00000) after the cells were digested with pancreatin in cell culture dishes and resuspended in DPBS medium. The cells were diluted to a solution of 44,000 cells per ml. The cell solution of which density was adjusted was added into the cell assay plate at 90 microliters per well. The well plate was incubated in an incubator with 5% CO2 at 37° C. for 24 hours and then added with test compounds with different concentrations. The cells were incubated with the compounds in the presence of 10% fetal bovine serum for 72 hours. ATP content was assayed using the CellTiter-Glo® Luminescent Cell Viability Assay kit (see instructions of manufacturer) to assess cell growth inhibition. Briefly, 30 μl of CellTiter-Glo® reagent was added to each well, rocked for 10 minutes to induce cell lysis, and […] were detected and recorded with Fluoroskan Ascent FL (Thermo). The maximum signal value was obtained from the cells treated with dimethyl sulfoxide for 72 hours. The minimum signal value was obtained from the separate culture medium (cell number was zero). Inhibition rate %=(maximum signal value−compound signal value)/(maximum signal value−minimum signal value)×100. Data was processed using GraphPad Prism V5.0 (GraphPad Software, San Diego, Calif.) software. IC50 values were calculated by fitting S-shaped dose-response curves.
On the technique in general: ATP-based viability assays read luminescence as a measure of living cells.

Data set [1] has as its target T1, CDK6 (GST-CDK6(1-326end)) (Homo sapiens, UniProt Q00534).
T1 construct: GST-CDK6(1-326end); purchased Carna 04-107
Put plainly: CDK6 activity inhibition experiment (Caliper mobility shift assay). Type of data set: biochemical. As to conditions: enzyme activity inhibition; read-out: CDK6 IC50 class. Here is the method: The activity of CDK6 protein kinase was measured using Caliper mobility shift assay (see J. Biomol Screen 14:31, 2009). […] 10 μl of the 2.5 times diluted CDK6 enzyme solution (GST-CDK6(1-326end); Carna, Cat. No 04-107) was added and then incubated at room temperature for 10 minutes, then 10 μl of the 2.5 times diluted substrate solution Peptide FAM-P8 (GL Biochem, Cat. No. 112396) was added. After being incubated at 28° C. for 40 minutes, 25 μl of stop solution was added to stop the reaction. Conversion rate data was read from Caliper EZ Reader II (Caliper Life Sciences). The conversion rate data was converted into inhibition rate data. […] Conversion rate data was converted into inhibition rate data according to the method described above. Inhibition rate %=(max−conversion rate)/(max−min)×100.

For another data set, the system named is ZR-75-1. The data set is described as follows: Tumor cell proliferation inhibition (CellTiter-Glo), ZR-75-1. The data set is classed as cell-based. The settings on record: Homo sapiens, 72 hours, 10% fetal bovine serum, read-out: ZR-75-1 IC50 class. As for the experimental part: as §1
The nature of data set [2]: Pharmacokinetic (PK) experiment in rats. Type of data set: in vivo. As to conditions: male, SD, plasma, po, rat, intragastric 20 mg/kg. Here is the method: Male SD rats weighing 300-350 g were fasted overnight prior to the experiment. The compounds to be tested were dissolved in 30% sulfobutyl ether-β-cyclodextrin (SBE-β-CD) and the rats were intragastric administration at 20 mg/kg. The blood was taken from the tails of the rats at 15 min, 30 min, and 1, 2, 3, 4, 6, 8 and 24 hours after administration, with about 0.3 ml of blood at each time point, and then the blood was placed in a centrifuge tube containing K2-EDTA, and centrifuged (2,000 g, 10 min, 4° C.) to take the plasma which was then stored in an ultra-low temperature freezer at −80° C. 50 μL, of plasma sample was mixed with 5 μL of internal standard (IS) and extracted with ethyl acetate. The residue was redissolved in acetonitrile after vacuum drying. The sample was filtered and injected into LC-MS/MS for analysis to determine the concentration of the compounds to be tested.
In the table: Tmax refers to the peak time, Cmax refers to the maximum plasma drug concentration, T1/2 is the half-life, AUClast refers to the area under the 0-24 hour time-concentration curve, AUCinf refers to the area under the 0-Inf time-concentration curve.

Data set [3] deals with MDA-MB-231 breast cancer cells. The data set is described as follows: Cell cycle inhibition experiment (PI staining, flow cytometry). The data set is classed as cell-based. The settings on record: Homo sapiens, MDA-MB-231 cells, 24 h. An excerpt: The cell cycle and apoptosis assay kit (Beyotime, C1052) used in this experiment is an assay kit for analyzing the cell cycle and apoptosis using the classic method of Propidium staining (PI staining). Propidium (PI) is a double-stranded DNA fluorescent dye. The combination of propidium and double-stranded DNA can produce fluorescence, and fluorescence intensity is proportional to the amount of double-stranded DNA. After DNA in cells is stained with propidium, the DNA content of the cells can be measured by flow cytometry, and then the cell cycle and apoptosis can be analyzed according to the distribution of DNA content.
MDA-MB-231 cells were seeded into a 6-well plate at 3×10^5 per well and cultured for 24 hours.
In tumor cell cycle, the binding of CDK4 and CDK6 to cyclin D promotes G1 phase into S phase. CDK4/6 inhibitor selectively arrests the G1 phase of tumor cells into S phase. The detection results of the cell cycle of MDA-MB-231 breast cancer cells by flow cytometry indicate that the CDK4/6 inhibitor compounds provided by the present disclosure stop the growth of G1 phase cells and reduce S phase cells in a concentration-dependent manner, as shown in the following table.
In general terms: A flow cytometer gives signals particle by particle.

In a further data set the test system is MDA-MB-231. The data set is described as follows: Tumor cell proliferation inhibition (CellTiter-Glo), MDA-MB-231. The data set is classed as cell-based. The settings on record: Homo sapiens, 72 hours, 10% fetal bovine serum, read-out: MDA-MB-231 IC50 class. As for the experimental part: as §1
The next data set addresses T2, CDK2 (Homo sapiens, UniProt P24941).
T2 construct: purchased Carna 04-103
The data set is described as follows: CDK2 activity inhibition experiment (Caliper mobility shift assay). The data set is classed as biochemical. The settings on record: enzyme activity inhibition; read-out: CDK2 IC50 class. As for the experimental part:
After being incubated at 28° C. for 60 minutes, 25 μl of stop solution was added to stop the reaction. Conversion rate data was read from Caliper EZ Reader II (Caliper Life Sciences). The conversion rate data was converted into inhibition rate data. […] The curve was plotted with compound concentration and inhibition rate as horizontal and vertical coordinates, and the IC50 was calculated by fitting the curve using XLFit excel add-in version 4.3.1 software. Inhibition rate %=(max-conversion rate)/(max-min)×100.

For data set [4], the system named is phosphorylation of Rb at Ser780 in MDA-MB-231 breast cancer cells. The data set is described as follows: Western Blot experiment, Rb phosphorylation. Type of data set: cell-based. As to conditions: MDA-MB-231 cells, 16 hours incubation, FIG. 1. Here is the method: MDA-MB-231 cells were grown in monolayer culture. […] The protein concentration was determined by the Branfor method. After being added with a loading buffer (Beyotime, # P0015L), the supernatant was boiled at 100° C. for 8 min, and the protein was separated by 8%-10% SDS-PAGE electrophoresis and then transferred to the PVDF membrane, and the membrane was blocked with 5% skimmed milk powder for 45 min, and then the cells were incubated overnight at 4° C. with primary antibody β-actin (CST, #4970), Rb (D20) Rabbit mAb (CST, #9313), Phospho-Rb(Ser780)(D59B7) Rabbit mAb (CST, #8180), and then the membrane was washed with TBST solution for 3×10 min. The cells were incubated in the dark at room temperature for 2 h with the fluorescent secondary antibody IRDye@680CW Goat (polyclonal) Anti-Rabbit 1gG (H+L), Highly Cross Adsorbed (LI-COR, #926-68071), and then the membrane was washed under the same condition above. Finally, the membrane was detected and imaged on a LI-COR Odyssey Infrared Fluorescence Scanning System, and the results are shown in FIG. 1.
CDK4/6 can make Rb protein lose the arrest on cell cycle by phosphorylating the tumor suppressor protein Rb protein. CDK4/6 inhibitor can prevent the inactivation of tumor suppressor protein Rb and thereby restore the arrest of Rb on cell cycle.

The target of data set [5] is T3, CDK4 (GST-CDK4(1-303end)/GST-CycD3(1-292end)) (Homo sapiens, UniProt P11802).
T3 construct: GST-CDK4(1-303end); purchased Carna 04-105
T3 sequence (P11802 whole entry): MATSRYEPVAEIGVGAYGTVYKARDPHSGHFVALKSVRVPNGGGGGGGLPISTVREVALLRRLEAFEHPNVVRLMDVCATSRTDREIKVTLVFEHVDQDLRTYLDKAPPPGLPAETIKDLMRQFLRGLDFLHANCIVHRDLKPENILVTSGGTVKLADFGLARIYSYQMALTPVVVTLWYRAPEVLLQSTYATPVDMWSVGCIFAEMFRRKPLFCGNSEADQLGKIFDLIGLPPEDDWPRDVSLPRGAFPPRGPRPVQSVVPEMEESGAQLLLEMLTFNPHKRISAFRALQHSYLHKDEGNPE
T3 sequence (P30281 whole entry partner): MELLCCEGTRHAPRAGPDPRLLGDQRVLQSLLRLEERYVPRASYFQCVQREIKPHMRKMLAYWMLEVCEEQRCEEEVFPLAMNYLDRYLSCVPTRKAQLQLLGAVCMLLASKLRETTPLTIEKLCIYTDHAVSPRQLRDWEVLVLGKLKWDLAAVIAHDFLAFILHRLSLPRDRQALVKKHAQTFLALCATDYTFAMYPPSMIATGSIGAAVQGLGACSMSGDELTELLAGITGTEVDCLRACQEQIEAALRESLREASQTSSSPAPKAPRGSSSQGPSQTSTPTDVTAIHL
The data set is described as follows: CDK4 activity inhibition experiment (Caliper mobility shift assay). Type of data set: biochemical. As to conditions: enzyme activity inhibition; read-out: CDK4 IC50 class.

Like-named read-outs stand apart in the source and are kept apart here. Bounds are passed on as bounds.

In general, IC50 refers to the concentration needed to halve the response being measured. As usually defined, the Cmax is the peak of the concentration-time curve. By Tmax is commonly meant the time at which the peak concentration occurs. In general, half-life refers to the time needed for the level to fall by half in the phase considered. Usually AUC(0-t) stands for the area under the concentration-time curve up to a stated or last time point. Lower therefore signals low exposure. Usually AUC(0-inf) stands for total exposure, with the tail of the curve extrapolated. Low readings indicate low exposure, high ones high exposure.

T1 sequence (Q00534 whole entry): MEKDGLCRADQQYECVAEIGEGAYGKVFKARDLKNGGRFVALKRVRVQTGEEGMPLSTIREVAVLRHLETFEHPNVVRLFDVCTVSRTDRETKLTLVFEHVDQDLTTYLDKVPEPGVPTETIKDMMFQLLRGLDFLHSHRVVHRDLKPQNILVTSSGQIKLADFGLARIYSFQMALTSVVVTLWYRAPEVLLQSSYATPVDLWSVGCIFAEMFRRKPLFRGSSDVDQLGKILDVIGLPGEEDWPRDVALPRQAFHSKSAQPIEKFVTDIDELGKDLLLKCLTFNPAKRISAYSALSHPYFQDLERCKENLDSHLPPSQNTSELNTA
T1 sequence (P30281 whole entry partner): as the sequence (P30281 whole entry partner) above

`CC(=O)c1c(C)c2cnc(Nc3ccc(C4CCN(CCCS(C)(=O)=O)CC4)cn3)nc2n(C2CCCC2)c1=O` [Compound 2, 6-acetyl-8-cyclopentyl-5-methyl-2-((5-(1-(3-(methylsulfonyl)propyl)piperidin-4-yl)pyridin-2-yl)amino)pyrido[2,3-d]pyrimidin-7(8H)-one]: the IC50 was 100 to 500 nM with SW620; 10 to 50 nM in data set [1]; at most 100 nM in the data set with ZR-75-1; 39.8 nM in data set [3] (read-out: IC50 (nM) G1 arrest); 40.9 nM in data set [3] (read-out: IC50 (nM) S decrease); 100 to 500 nM in the data set with MDA-MB-231. Moreover, the 50% inhibitory concentration (IC50) is over 500 nM at CDK2 and under 10 nM in [5]. The same molecule yielded a Cmax in data set [2] of 860 ng/mL. In [2], the Tmax stood at 2.7 h. This molecule gave a half-life in data set [2] of 5 h. In [2] (0-24 hour), this molecule showed an AUC(0-t) of 11200 ng·h/mL. This molecule had a total exposure AUC(0-inf) in [2] (0-Inf) of 11700 ng·h/mL. Besides, the “phosphorylation of Rb at Ser780 site” value in [4] was “effectively reduce”.

The values are drawn from patent publication US10183941B2, “Pyrimidine or pyridopyridone compound and application thereof” (GUANGZHOU BEBETTER MEDICINE TECHNOLOGY CO., LTD., priority 2015, dated 2019).
